Measured values as given in patent US11279733B2, “Peptide antibiotics” (priority 2017, dated 2022).
≈ marks a conversion by molar mass, not a printed value. Read-outs that look alike come from different tables or passages of the source. Positions of bridges follow the written chain, without caps; N, C: chain ends. Non-standard residues stand in square brackets, D forms with d. Residues, ends and D or L forms follow the SMILES beside them. *: point of attachment. Isonicotinoyl(2-Ph) = O=C(c1ccnc(-c2ccccc2)c1)*; Decanoyl(3R-OH) = CCCCCCC[C@@H](O)CC(=O)*; dDab = NCC[C@@H](N)C(=O)O; X2 = CCC(C)CCC(O)CC(=O)*; Dab = NCC[C@H](N)C(=O)O; X5 = O=C(CCCCCCCO)*

Key:
K. pneumoniae ATCC 13883 = conditions: ATCC 13883
How it was run: (§1)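 Mid-log cultures grown in Mueller Hinton broth at 37° C were tested by 2-fold broth microdilution at 5×10^5 CFU/mL final. Compounds were dissolved in water and tested over a final range of 32 to 0.015 μg/mL.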

[1] = system: K. pneumoniae GN_106, PmxR; conditions: GN 106, PmxR
How it was run: as §1

[2] = system: K. pneumoniae GN_102 PmxR; conditions: GN 102 PmxR
How it was run: as §1

E. coli ATCC 25922 = conditions: ATCC 25922
How it was run: as §1

[3] = system: K. pneumoniae ATCC BAA-2146, NDM-1 pos; conditions: ATCC BAA-2146
How it was run: as §1

A. baumannii GN_093 PmxR = conditions: GN 093 PmxR
How it was run: as §1

[4] = system: P. aeruginosa GN_105, PmxR; conditions: GN 105, PmxR
How it was run: as §1

P. aeruginosa ATCC 27853 = conditions: ATCC 27853
How it was run: as §1

[5] = system: K. pneumoniae ATCC 700603, MDR; conditions: ATCC 700603
How it was run: as §1

A. baumannii ATCC 19606 = conditions: ATCC 19606
How it was run: as §1

[6] = system: P. aeruginosa GN_043, PmxR
How it was run: as §1

[7] = system: S. aureus ATCC 25923, MSSA; conditions: ATCC 25923
How it was run: as §1

in vitro [8] = conditions: human
How it was run: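 Fluorescence read-out (excitation 560, emission 590) after a 2 h, 37 °C incubation with 5 μM resazurin, following 24 h compound treatment of cells plated at 4000 per well. CC50 values come from fitting dose–response curves of growth inhibition.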

in vitro [9] = conditions: human; remark: listed apart in the source
How it was run: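 HK2 cells were seeded at 2000 per well in DMEM/F12 with 10% FBS and left to attach for 24 h at 37 °C, 5% CO2. They were then exposed for 24 h to 3-fold peptide dilutions starting from 600 μM solutions in quadruplicate. LDH release was read at 450 nm, and CC50 was fitted from dose-response curves.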

in vitro [10] = conditions: human; remark: listed apart in the source
Protocol: Cytotoxicity of the synthesised peptides was evaluated by comparison with commercially available colistin (polymyxin E), polymyxin B (Sigma chemical Co., St. Louis, Mo., U.S.A.) and synthetic octapeptin C4 by conducting lactate dehydrogenase (LDH) assay. CC50 values calculated based on curve fitting of dose dependent inhibition of cell growth represented the cytotoxicity of the peptide. Human kidney 2 (HK2) cells were seeded as 2000 cells per well in a 384 well cell culture plate in a final volume of 20 μL in DMEM/F12 medium (Invitrogen #11330057), in which 10% of FBS was added. Cells were incubated for 24 hours at 37° C., 5% CO2 to allow cells to attach to the plates. Similar conditions were employed for HEK293 and HepG2 cytotoxicity assays.
Cytotoxicity to HEK293 and HepG2 cells was determined using the resazurin assay (McMillian, M. K.; Li, L.; Parker, J. B.; Patel, L.; Zhong, Z.; Gunnett, J. W.; Powers, W. J.; Johnson, M. D. An improved resazurin-based cytotoxicity assay for hepatic cells; Cell Biol. Toxicol. 2002, 18, 157-173; O'Brien, J.; Wilson, I.; Orton, T.; Pognan, F. Investigation of the Alamar Blue (resazurin) fluorescent dye for the assessment of mammalian cell cytotoxicity. Eur. J. Biochem. 2000, 267, 5421-5426). In brief, HEK293 and HepG2 cells were seeded at 4000 cells/well in black-wall, clear-bottom 384-well plates (Corning, Australia) and incubated for 24 h at 37° C., 5% CO2. Compounds were then added into each well. After 24 h incubation, 5 μM resazurin was added per well and incubated at 37° C. for 2 h. Fluorescence intensity was then read using a Polarstar Omega with excitation/emission 560/590. The data was then analyzed using GraphPad Prism 6 software. CC50 values were determined using GraphPad Prism 6 software (Inc. La Jolla, Calif.).

SMILES | MIC K. pneumoniae ATCC 13883 (K. pneumoniae ATCC 13883) [µg/mL] | MIC K. pneumoniae GN_106, PmxR [1] [µg/mL] | MIC K. pneumoniae GN_102 PmxR [2] [µg/mL] | MIC E. coli ATCC 25922 (E. coli ATCC 25922) [µg/mL] | MIC K. pneumoniae ATCC BAA-2146, NDM-1 pos [3] [µg/mL] | MIC A. baumannii GN_093 PmxR (A. baumannii GN_093 PmxR) [µg/mL] | MIC P. aeruginosa GN_105, PmxR [4] [µg/mL] | MIC P. aeruginosa ATCC 27853 (P. aeruginosa ATCC 27853) [µg/mL] | MIC K. pneumoniae ATCC 700603, MDR [5] [µg/mL] | MIC A. baumannii ATCC 19606 (A. baumannii ATCC 19606) [µg/mL] | MIC P. aeruginosa GN_043, PmxR ([6]; P. aeruginosa GN_043, PmxR) [µg/mL] | MIC S. aureus ATCC 25923, MSSA [7] [µg/mL] | CC50 at 24 h (in vitro [8]) [µM] | CC50 at 24 h (in vitro [9]) [µM] | CC50 at 24 h (in vitro [10]) [µM] | MIC P. aeruginosa GN_043, PmxR [6] [µg/mL]
CCCCCCC[C@@H](O)CC(=O)N[C@H](CCN)C(=O)N[C@H]1CCNC(=O)[C@H](CC(C)C)NC(=O)[C@H](CCN)NC(=O)[C@H](CCN)NC(=O)[C@H](CC(C)C)NC(=O)[C@@H](Cc2ccc(O)cc2)NC(=O)[C@H](CCN)NC1=O [compound 5008, 3(R)OH-nC9CO-D-Dab-cyc[L-Dab-L-Dab-D-Tyr-L-Leu-L-Dab-L-Dab-L-Leu]] ({Decanoyl(3R-OH)}-[dDab][Dab][Dab][dY]L[Dab][Dab]L; lactam 2-C) | 16 (≈ 15.1 µM) | 16 (≈ 15.1 µM) | 16 (≈ 15.1 µM) | 8 (≈ 7.54 µM) | 16 (≈ 15.1 µM) | 32 (≈ 30.2 µM) | 16 (≈ 15.1 µM) | 1 (≈ 0.943 µM) | 8 (≈ 7.54 µM) | 32 (≈ 30.2 µM) | 2 (≈ 1.89 µM) | 32 (≈ 30.2 µM) | > 300 | 106 | > 300 | 
CCC(C)CCC(O)CC(=O)N[C@H](CCN)C(=O)N[C@H]1CCNC(=O)[C@H](CC(C)C)NC(=O)[C@H](CCN)NC(=O)[C@H](CCN)NC(=O)[C@H](Cc2ccccc2)NC(=O)[C@H](CC(C)C)NC(=O)[C@H](CCN)NC1=O (stereo partly drawn) [compound 6371, nC5(6-Me)CH(OH)CH2CO-D-Dab-cyc[L-Dab-L-Dab-L-Leu-L-Phe-L-Dab-L-Dab-L-Leu]] (X2-[dDab][Dab][Dab]LF[Dab][Dab]L; lactam 2-C) | >32 | >32 | >32 | >32 | >32 | >32 | >32 | 32 (≈ 31.1 µM) | >32 | >32 | >32 | >32 | > 300 | > 300 | > 300 | 
CCCCCCC[C@@H](O)CC(=O)N[C@@H](CCN)C(=O)N[C@@H]1CCNC(=O)[C@H](CC(C)C)NC(=O)[C@H](CCN)NC(=O)[C@H](CCN)NC(=O)[C@H](C)NC(=O)[C@@H](Cc2ccccc2)NC(=O)[C@H](CCN)NC1=O [compound 6660, 3(R)OH-nC9CO-L-Dab-cyc[D-Dab-L-Dab-D-Phe-L-Ala-L-Dab-L-Dab-L-Leu]] ({Decanoyl(3R-OH)}-[Dab][dDab][Dab][dF]A[Dab][Dab]L; lactam 2-C) | >32 | >32 | >32 | >32 | >32 | >32 | >32 | >32 | >32 | >32 | >32 | >32 | > 300 | > 300 | > 300 | 
CC(C)C[C@@H]1NC(=O)[C@H](CCN)NC(=O)[C@H](CCN)NC(=O)[C@H](CC(C)C)NC(=O)[C@@H](Cc2ccccc2)NC(=O)[C@H](CCN)NC(=O)[C@@H](NC(=O)[C@@H](CCN)NC(=O)c2ccnc(-c3ccccc3)c2)CCNC1=O [compound 6525, 3Phe4-PyCO-D-Dab-cyc[L-Dab-L-Dab-D-Phe-L-Leu-L-Dab-L-Dab-L-Leu]] ({Isonicotinoyl(2-Ph)}-[dDab][Dab][Dab][dF]L[Dab][Dab]L; lactam 2-C) | 16 (≈ 15.2 µM) | >32 | 16 (≈ 15.2 µM) | 4 (≈ 3.79 µM) | 16 (≈ 15.2 µM) | >32 | 8 (≈ 7.58 µM) | 4 (≈ 3.79 µM) | 8 (≈ 7.58 µM) | >32 |  | >32 | > 300 | > 300 | > 300 | 2 (≈ 1.9 µM)
CC(C)C[C@@H]1NC(=O)[C@H](CCN)NC(=O)[C@H](CCN)NC(=O)[C@H](CC(C)C)NC(=O)[C@@H](Cc2ccccc2)NC(=O)[C@H](CCN)NC(=O)[C@@H](NC(=O)[C@@H](CCN)NC(=O)CCCCCCCO)CCNC1=O [compound 6522, 8OH-nC7CO-D-Dab-cyc[L-Dab-L-Dab-D-Phe-L-Leu-L-Dab-L-Dab-L-Leu]] (X5-[dDab][Dab][Dab][dF]L[Dab][Dab]L; lactam 2-C) | >32 | >32 | >32 | >32 | >32 | >32 | >32 | 2 (≈ 1.97 µM) | >32 | >32 |  | >32 | > 300 | 208 | > 300 | 2 (≈ 1.97 µM)
CC(C)C[C@@H]1NC(=O)[C@H](CCN)NC(=O)[C@H](CCN)NC(=O)[C@H](Cc2ccccc2)NC(=O)[C@@H](CC(C)C)NC(=O)[C@H](CCN)NC(=O)[C@@H](NC(=O)[C@@H](CCN)NC(=O)c2ccnc(-c3ccccc3)c2)CCNC1=O [compound 6517, 3Phe4-PyCO-D-Dab-cyc[L-Dab-L-Dab-D-Leu-L-Phe-L-Dab-L-Dab-L-Leu]] ({Isonicotinoyl(2-Ph)}-[dDab][Dab][Dab][dL]F[Dab][Dab]L; lactam 2-C) | 32 (≈ 30.3 µM) | 32 (≈ 30.3 µM) | >32 | 8 (≈ 7.58 µM) | 32 (≈ 30.3 µM) | >32 | 4 (≈ 3.79 µM) | 2 (≈ 1.9 µM) | 8 (≈ 7.58 µM) | >32 | 1 (≈ 0.948 µM) | >32 | > 300 | > 300 | > 300 | 
CCCCCCC[C@@H](O)CC(=O)N[C@@H](CCN)C(=O)N[C@@H]1CCNC(=O)[C@H](CC(C)C)NC(=O)[C@H](CCN)NC(=O)[C@H](CCN)NC(=O)[C@H](CC(C)C)NC(=O)[C@@H](Cc2ccccc2)NC(=O)[C@H](CCN)NC1=O [compound 6658, 3(R)OH-nC9CO-L-Dab-cyc[D-Dab-L-Dab-D-Phe-L-Leu-L-Dab-L-Dab-L-Leu]] ({Decanoyl(3R-OH)}-[Dab][dDab][Dab][dF]L[Dab][Dab]L; lactam 2-C) | >32 | >32 | >32 | >32 | >32 | >32 | >32 | 32 (≈ 30.6 µM) | >32 | >32 | >32 | >32 | > 300 | > 300 | > 300 | 
